# Patent US20120283428A1, “HYALURONIC ACID DERIVATIVE EFFECTIVE AGAINST ATOPIC DERMATITIS, AND METHOD FOR MANUFACTURING SAME” (CELLINBIO CO.,LTD, priority 2009, published 2012)
# System: PGE2
# Experiment: PGE2 level in LPS-stimulated macrophage cell-line, ELISA
# Format: cell-based, mouse
# Conditions: RAW 264.7, 500 ng/ml LPS, 10 mg/ml test substance, 24 hours, compared to control (FIG. 2)
# Procedure: As a positive control, ascorbic acid (AA) and a mixture of hyaluronic acid and ascorbic acid (HA+AA) was used in this Example. PGE2 is a substance causing inflammation, edema, pain and fever in body. Microphage cell-line (RAW 264.7) was inoculated into medium containing DMEM (Dulbecco's modified Eagle's medium)/FBS (Fetal Bovine Serum) under a condition of […] of CO2 concentration at a temperature of 37° C. in order to culture the cell-line. […] The complete medium was cultured additionally for 24 hours, and then PGE2 level in supernatant of medium was assayed by ELISA (enzyme-linked Immunosorbent Assay) analysis. […] Each well was washed, and then substrate solution was added.
structure (smiles),measurement,value
"O=C1O[C@H]([C@@H](O)CO)C(O)=C1O [AA, ascorbic acid]",PGE2 level in supernatant of medium,decrease PGE2 significantly
